The test system of test [1] is Rattus norvegicus. Description: Wound healing activity in Rattus norvegicus Swiss albino Wistar (rat) dead space wound model assessed as granular tissue weight per 100 g tissue at 5 mg/ml, po measured on day 10 post-wounding (reference value: 31 +/- 0.93 mg). It counts as functional.
Test [2] relates to Rattus norvegicus. Briefly: Wound healing activity in Rattus norvegicus Swiss albino Wistar (rat) incision wound model assessed as skin breaking strength at 5 mg/ml, po measured on day 10 post-wounding by tensiometric analysis (reference value: 400 +/- 28.87 g). It counts as functional.
For test [3], the system named is Rattus norvegicus. Description: Wound healing activity in Rattus norvegicus Swiss albino Wistar (rat) excision wound model assessed as time of epithelialization at 0.2% w/v administered topically (reference value: 24 +/- 0.26 days). It counts as functional.
Test [4] deals with Rattus norvegicus. Briefly: Wound healing activity in Rattus norvegicus Swiss albino Wistar (rat) excision wound model assessed as wound closure at 0.2% w/v administered topically measured on day 4 post-wounding (reference value: 25.59 +/- 1.79%). The test is classed as functional.
The subject of test [5] is Rattus norvegicus. Briefly: Wound healing activity in Rattus norvegicus Swiss albino Wistar (rat) excision wound model assessed as wound closure at 0.2% w/v administered topically measured on day 16 post-wounding (reference value: 83.31 +/- 1.06%). It counts as functional.
Test [6] deals with Rattus norvegicus. Description: Wound healing activity in Rattus norvegicus Swiss albino Wistar (rat) excision wound model assessed as wound closure at 0.2% w/v administered topically measured on day 8 post-wounding (reference value: 48.75 +/- 1.34%). The test is classed as functional.
Test [7] deals with Rattus norvegicus. Briefly: Wound healing activity in Rattus norvegicus Swiss albino Wistar (rat) excision wound model assessed as wound closure at 0.2% w/v administered topically measured on day 12 post-wounding (reference value: 69.04 +/- 1.05%). The test is classed as functional.
The subject of test [8] is Rattus norvegicus. Briefly: Wound healing activity in Rattus norvegicus Swiss albino Wistar (rat) dead space wound model assessed as hydroxyproline content per 100 g tissue at 5 mg/ml, po measured on day 10 post-wounding by Neuman-Logan method (reference value: 1369.67 +/- 10.54 ug). The test is classed as functional.
For test [9], the system named is Rattus norvegicus. Briefly: Wound healing activity in Rattus norvegicus Swiss albino Wistar (rat) dead space wound model assessed as tissue breaking strength at 5 mg/ml, po measured on day 10 post-wounding (reference value: 260.83 +/- 14.05 g). It counts as functional.
In test [10] the test system is Rattus norvegicus. Description: Wound healing activity in Rattus norvegicus Swiss albino Wistar (rat) incision wound model assessed as skin breaking strength at 10 mg/ml, po measured on day 10 by tensiometric analysis (reference value: 400 +/- 28.87 g). The test is classed as functional.
In test [11] the test system is Rattus norvegicus. Briefly: Wound healing activity in Rattus norvegicus Swiss albino Wistar (rat) dead space wound model assessed as decrease in macrophages at 10 mg/ml, po measured on day 10 post-wounding by histological analysis relative to control. The test is classed as functional, organism-based.
Test [12] has as its system Rattus norvegicus. Description: Wound healing activity in Rattus norvegicus Swiss albino Wistar (rat) dead space wound model assessed as increase in collagenation of granulation tissue at 10 mg/ml, po measured on day 10 post-wounding by histological analysis relative to control. The test is classed as functional, organism-based.
Test [13] concerns Rattus norvegicus. Description: Wound healing activity in Rattus norvegicus Swiss albino Wistar (rat) dead space wound model assessed as hydroxyproline content per 100 g tissue at 10 mg/ml, po measured on day 10 post-wounding by Neuman-Logan method (reference value: 1369.67 +/- 10.54 ug). The test is classed as functional.
Test [14] concerns Rattus norvegicus. Briefly: Wound healing activity in Rattus norvegicus Swiss albino Wistar (rat) dead space wound model assessed as tissue breaking strength at 10 mg/ml, po measured on day 10 post-wounding (reference value: 260.83 +/- 14.05 g). It counts as functional.
For test [15], the system named is Rattus norvegicus. Description: Wound healing activity in Rattus norvegicus Swiss albino Wistar (rat) dead space wound model assessed as granular tissue weight per 100 g tissue at 10 mg/ml, po measured on day 10 post-wounding (reference value: 31 +/- 0.93 mg). It counts as functional.
Test [16] has as its system Rattus norvegicus. Description: Wound healing activity in po dosed Rattus norvegicus Swiss albino Wistar (rat) incision wound model assessed as skin breaking strength measured on day 10 post-wounding by tensiometric analysis (reference value: 400 +/- 28.87 g). The test is classed as functional.
In test [17] the test system is Rattus norvegicus. Description: Wound healing activity in Rattus norvegicus Swiss albino Wistar (rat) incision wound model assessed as skin breaking strength at 15 mg/ml, po measured on day 10 post-wounding by tensiometric analysis (reference value: 400 +/- 28.87 g). The test is classed as functional.
Test [18] relates to Rattus norvegicus. Briefly: Wound healing activity in Rattus norvegicus Swiss albino Wistar (rat) dead space wound model assessed as hydroxyproline content per 100 g tissue at 15 mg/ml, po measured on day 10 post-wounding by Neuman-Logan method (reference value: 1369.67 +/- 10.54 ug). The test is classed as functional.
The subject of test [19] is Rattus norvegicus. Briefly: Wound healing activity in Rattus norvegicus Swiss albino Wistar (rat) dead space wound model assessed as tissue breaking strength at 15 mg/ml, po measured on day 10 post-wounding (reference value: 260.83 +/- 14.05 g). It counts as functional.
Test [20] deals with Rattus norvegicus. Description: Wound healing activity in Rattus norvegicus Swiss albino Wistar (rat) dead space wound model assessed as granular tissue weight per 100 g tissue at 15 mg/ml, po measured on day 10 post-wounding (reference value: 31 +/- 0.93 mg). It counts as functional.

Molecules are shown by their SMILES. Activity calls are given as the source filed them. The rule behind the calls is not given here.

`CS/C=C/C(=O)NCCO` [ENTADAMIDE]: the Activity with Rattus norvegicus [1] came out at 50.75 mg; in the test with Rattus norvegicus [2], 533.5 g; with Rattus norvegicus [4], 28.28%; with Rattus norvegicus [5] it was 92.22%; in the test with Rattus norvegicus [6], 57.32%; in the test on Rattus norvegicus [7] it was 71.27%. The Activity with Rattus norvegicus [8] was 1891.17 µg; in the test with Rattus norvegicus [9] it was 463.33 g. For the same compound, the Time with Rattus norvegicus [3] was 19.92 days.
As to `CC1(C)CC[C@]2(C(=O)O)[C@H](O)[C@H](O)[C@]3(C)C(=CC[C@@H]4[C@@]5(C)CC[C@H](O)C(C)(C)[C@@H]5CC[C@]43C)[C@@H]2C1` [ENTAGENIC ACID], the Activity in the test on Rattus norvegicus [10] turned out to be 655.67 g; in the test on Rattus norvegicus [4], 33.39%; with Rattus norvegicus [5], 96.08%; in the test on Rattus norvegicus [6] it was 65.21%; in the test on Rattus norvegicus [7], 76.38%; with Rattus norvegicus [13] it was 2001.33 µg. Moreover, the figures for the Activity in the test with Rattus norvegicus [14] and with Rattus norvegicus [15] were 549.83 g and 53.11 mg, respectively. Besides, the Time in the test with Rattus norvegicus [3] was found to be 18.08 days. In addition, the outcome with Rattus norvegicus [11] and in the test with Rattus norvegicus [12] was Active.
Consider `NC(=O)N/N=C/c1ccc([N+](=O)[O-])o1` [NITROFURAZONE], for which the Activity with Rattus norvegicus [16] came to 683.33 g; in the test with Rattus norvegicus [4] it was 41.46%; in the test on Rattus norvegicus [5], 97.64%; with Rattus norvegicus [6], 80.7%; with Rattus norvegicus [7], 91.32%. Also, the Time with Rattus norvegicus [3] is 16.33 days.
For `O=C(O)Cc1cc(O)ccc1O[C@@H]1O[C@H](CO)[C@@H](O)[C@H](O)[C@H]1O` [PHASEOLOIDIN], the Activity came out at 490.33 g with Rattus norvegicus [17]; 27.08% in the test on Rattus norvegicus [4]; 88.5% in the test on Rattus norvegicus [5]; 52.15% with Rattus norvegicus [6]; 70.08% with Rattus norvegicus [7]; 1690.33 µg in the test on Rattus norvegicus [18]. The Activity is reported as 450.17 g in the test with Rattus norvegicus [19] and 43.92 mg with Rattus norvegicus [20]. In the test on Rattus norvegicus [3], the Time was found to be 21.16 days.

Source of the values: ChEMBL document CHEMBL3046427, “Wound healing phytoconstituents from seed kernel of Entada pursaetha DC. and their molecular docking studies with glycogen synthase kinase 3-” (2012).
